Laboratory results taken from patent US20250230193A1, “CYCLIC COMPOUND HAVING SELECTIVE KRAS INHIBITORY EFFECT ON HRAS AND NRAS” (CHUGAI SEIYAKU KABUSHIKI KAISHA, priority 2022, published 2025).
*1 amine or outer side, *2 acyl side, *3 side chain or, on linkers, in order; H or OH if unused. Where a SMILES comes first, the peptide text is derived from it. Bridges are numbered along the chain shown (N, C = ends). [ ]: non-standard residue; d: D form. The star is where a group is joined. hPhe(3-Cl-4-CF3) = N[C@@H](CCc1ccc(C(F)(F)F)c(Cl)c1)C(=O)O; NPrPhe(4-CF3) = CCCN[C@@H](Cc1ccc(C(F)(F)F)cc1)C(=O)O; X44 = CCCN([C@@H](Cc1ccccc1)C(=O)[*:2])[*:1]; NMeGly(cPent) = CN[C@H](C(=O)O)C1CCCC1; NMeD = CN[C@@H](CC(=O)O)C(=O)O; NMeL = CN[C@@H](CC(C)C)C(=O)O; X51 = O=C(CN(CCF)[*:1])[*:2]; Morpholide = C1CN(*)CCO1; Ac5c = NC1(C(=O)O)CCCC1; Sar = CNCC(=O)O

Tests used:
[1] = target: GDP-bound NRAS wild-type protein (Homo sapiens, UniProt P01111); assay: Binding to NRAS by surface plasmon resonance (SPR), Single Cycle Kinetics; conditions: KD ratio NRAS/KRAS
GDP-bound NRAS wild-type protein, sequence (P01111 whole entry): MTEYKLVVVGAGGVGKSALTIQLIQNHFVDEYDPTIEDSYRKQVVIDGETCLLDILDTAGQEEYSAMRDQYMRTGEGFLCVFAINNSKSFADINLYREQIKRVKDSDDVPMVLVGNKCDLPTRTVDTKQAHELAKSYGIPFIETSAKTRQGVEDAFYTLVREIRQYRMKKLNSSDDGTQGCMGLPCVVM

[2] = target: GDP-bound HRAS wild-type protein (Homo sapiens, UniProt P01112); assay: Binding to HRAS by surface plasmon resonance (SPR), Single Cycle Kinetics; conditions: KD ratio HRAS/KRAS
GDP-bound HRAS wild-type protein, sequence (P01112 whole entry): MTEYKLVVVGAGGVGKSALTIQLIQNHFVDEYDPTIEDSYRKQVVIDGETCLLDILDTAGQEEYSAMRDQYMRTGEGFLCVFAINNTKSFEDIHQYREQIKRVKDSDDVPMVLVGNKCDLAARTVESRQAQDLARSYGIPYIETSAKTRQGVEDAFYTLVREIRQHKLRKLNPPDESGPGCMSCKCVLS

[3] = SPR, GDP-bound wild-type proteins

SMILES: CCCN1C(=O)CN(C)C(=O)CN(C)C(=O)[C@H]([C@@H](C)CC)NC(=O)[C@H](CC(C)C)N(C)C(=O)C[C@@H](C(=O)N2CCOCC2)N(C)C(=O)[C@H](C2CCCC2)N(C)C(=O)C2(CCCC2)NC(=O)[C@@H]2CCCN2C(=O)[C@H](CCc2ccc(C(F)(F)F)c(Cl)c2)NC(=O)CN(C)C(=O)[C@@H]1Cc1ccccc1 [PP0211] ([NMeL]I[Sar][Sar][X44][Sar][hPhe(3-Cl-4-CF3)]P[Ac5c][NMeGly(cPent)][NMeD]-Morpholide; lactam N-11)
- NRAS/KRAS (ratio of KD for GDP-bound NRAS wild-type to KD for KRAS) ([1]; SPR): B (a compound having 3 or more and less than 10 is denoted as B)
- HRAS/KRAS (ratio of KD for GDP-bound HRAS wild-type to KD for KRAS) ([2]; SPR): C (A compound having a KD ratio of 0.1 or more and less than 3 is denoted as C)

SMILES: CC[C@H](C)[C@@H]1NC(=O)[C@H](CC(C)C)N(C)C(=O)C[C@@H](C(=O)N2CCOCC2)N(C)C(=O)[C@H](C2CCCC2)N(C)C(=O)C2(CCCC2)NC(=O)[C@@H]2CCCN2C(=O)[C@H](CCc2cc(F)c(C(F)(F)F)c(F)c2)NC(=O)CN(C)C(=O)[C@H](Cc2ccc(C(F)(F)F)cc2)N2CCCC[C@@H](C2=O)N(C)C(=O)[C@H](C)N(C)C1=O [PP0544]
- NRAS/KRAS (ratio of KD value with respect to GDP-bound NRAS wild-type protein to KD value with respect to KRAS) ([1]; SPR): B (a compound having 3 or more and less than 10 is denoted as B)
- HRAS/KRAS (ratio of KD value with respect to GDP-bound HRAS wild-type protein to KD value with respect to KRAS) ([2]; SPR): B (a compound having 3 or more and less than 10 is denoted as B)

SMILES: CCCN1C(=O)CN(C)C(=O)CN(CCF)C(=O)[C@H]([C@@H](C)CC)NC(=O)[C@H](CC(C)C)N(C)C(=O)C[C@@H](C(=O)N2CCOCC2)N(C)C(=O)[C@H](C2CCCC2)N(C)C(=O)C2(CCCC2)NC(=O)[C@@H]2CCCN2C(=O)[C@H](CCc2ccc(C(F)(F)F)c(Cl)c2)NC(=O)CN(C)C(=O)[C@@H]1Cc1ccc(C(F)(F)F)cc1 [PP0751] ([NMeL]I[X51][Sar][NPrPhe(4-CF3)][Sar][hPhe(3-Cl-4-CF3)]P[Ac5c][NMeGly(cPent)][NMeD]-Morpholide; lactam N-11)
- NRAS/KRAS (ratio of KD value with respect to GDP-bound NRAS wild-type protein to KD value with respect to KRAS) ([1]; SPR): B (a compound having 3 or more and less than 10 is denoted as B)
- HRAS/KRAS (ratio of KD value with respect to GDP-bound HRAS wild-type protein to KD value with respect to KRAS) ([2]; SPR): C (A compound having a KD ratio of 0.1 or more and less than 3 is denoted as C)

SMILES: CCO[C@@H]1C[C@H]2C(=O)N(C)C3(CC(C)(C)C3)C(=O)N(C)[C@@H](C3CCCC3)C(=O)N(C)[C@H](C(=O)N(C)C)CC(=O)N(C)[C@H]3CCC/C=C/c4ccc(cc4)C[C@@H](C(=O)N(C)CC(=O)N[C@@H](CCc4cc(F)c(C(F)(F)F)c(F)c4)C(=O)N2C1)N1CC/C=C\C[C@@H](C1=O)N(C)C(=O)CN(C)C(=O)[C@H]([C@@H](C)CC)NC3=O [PP3060]
- NRAS/KRAS (ratio of KD value with respect to GDP-bound NRAS wild-type protein to KD value with respect to KRAS) [1, 3]: B (a compound having 3 or more and less than 10 is denoted as B)
- HRAS/KRAS (ratio of KD value with respect to GDP-bound HRAS wild-type protein to KD value with respect to KRAS) [2, 3]: B (a compound having 3 or more and less than 10 is denoted as B)

SMILES: CCC[C@H]1C(=O)N[C@@H]([C@@H](C)CC)C(=O)N(C)CC(=O)N(C)[C@H]2C/C=C\CCN(C2=O)[C@@H](Cc2ccc(C)cc2)C(=O)N(C)CC(=O)N[C@@H](CCc2ccc(C(F)(F)F)c(OC)c2)C(=O)N2C[C@H](OCC)C[C@H]2C(=O)NC2(CC(C)(C)C2)C(=O)N(C)[C@@H](CC(C)C)C(=O)N(C)[C@H](C(=O)N(C)C)CC(=O)N1C [PP3008]
- NRAS/KRAS (ratio of KD value with respect to GDP-bound NRAS wild-type protein to KD value with respect to KRAS) [1, 3]: A (a compound having 10 or more and less than 20 is denoted as A)
- HRAS/KRAS (ratio of KD value with respect to GDP-bound HRAS wild-type protein to KD value with respect to KRAS) [2, 3]: A (a compound having 10 or more and less than 20 is denoted as A)

SMILES: CCC[C@H]1C(=O)N[C@@H](CC(C)C)C(=O)N(CC)CC(=O)N(C)[C@H]2C/C=C\CCN(C2=O)[C@@H](Cc2ccc(C)cc2)C(=O)N(C)CC(=O)N[C@@H](CCc2ccc(C(F)(F)F)c(Cl)c2)C(=O)N2C[C@H](OCC)C[C@H]2C(=O)NC2(CC(C)(C)C2)C(=O)N(C)[C@@H](C2CCCC2)C(=O)N(C)[C@H](C(=O)N(C)C)CC(=O)N1C [PP2528]
- NRAS/KRAS (ratio of KD value with respect to GDP-bound NRAS wild-type protein to KD value with respect to KRAS) ([1]; class symbols): A (a compound having 10 or more and less than 20 is denoted as A)
- HRAS/KRAS (ratio of KD value with respect to GDP-bound HRAS wild-type protein to KD value with respect to KRAS) ([2]; class symbols): B (a compound having 3 or more and less than 10 is denoted as B)

SMILES: CCO[C@@H]1C[C@H]2C(=O)NC3(CCC3)C(=O)N(C)[C@@H](C3CCCC3)C(=O)N(CCC3CCCC3)[C@H](C(=O)N(C)C)CC(=O)N(C)[C@@H](CC)C(=O)N[C@@H]([C@@H](C)CC)C(=O)N(C)CC(=O)N(C)[C@H]3CCCCCN(C3=O)[C@@H](Cc3ccc(C(F)(F)F)cc3)C(=O)N(C)CC(=O)N[C@@H](CCc3cc(F)c(C(F)(F)F)c(F)c3)C(=O)N2C1 [PP0636]
- NRAS/KRAS (ratio of KD value with respect to GDP-bound NRAS wild-type protein to KD value with respect to KRAS) ([1]; SPR): A (a compound having 10 or more and less than 20 is denoted as A)
- HRAS/KRAS (ratio of KD value with respect to GDP-bound HRAS wild-type protein to KD value with respect to KRAS) ([2]; SPR): A (a compound having 10 or more and less than 20 is denoted as A)
